Results from patent publication US20260022114A1, “N-(5-SUBSTITUTED-[(1,3,4-THIADIAZOLYL) OR (1,3-THIAZOLYL)](SUBSTITUTED)CARBOXAMIDE COMPOUNDS, PHARMACEUTICAL COMPOSITIONS, AND METHODS OF PREPARING THE AMIDE COMPOUNDS AND OF THEIR USE” (Repare Therapeutics Inc., priority 2022, published 2026).
pIC50: −log10 of the molar value.

Assays:
[1] = Liver microsomal stability assay; format: in vitro ADME; details: pH 7.4; human liver microsomes, 1 μM compound
Method: Liver microsomes were thawed on ice prior to use. The incubation mixtures were prepared in 96-well plates and contained test compound or control (1 μM), liver microsomes (0.5 mg of microsomal protein/mL), MgCl2 (5 mM), phosphate buffer (100 mM, pH 7.4), 0.01% DMSO and 1% acetonitrile. A T=0 aliquot was withdrawn after 10 min pre-incubation at 37° C. on a shaker. Reactions were initiated by the addition of NADPH (final concentration of 1 mM) and the plate was kept on a shaker at 37° C., further samples were withdrawn at 5, 15, 30, and 60 minutes. At each timepoint, the reactions were immediately terminated by adding of ice-cold acetonitrile containing internal standard to the withdrawn sample. The extracted samples were centrifuged for 10 minutes at 3200 rpm to pellet the precipitated microsomal protein, and the supernatant was combined 1:1 with water and analyzed by LC-MS/MS. Using the T=0 peak area ratio as 100%, the percentage of parent compound remaining was calculated. For each compound, the In percentage remaining versus incubation time was plotted and the slope of this linear regression (−k) was converted to an in vitro T1/2 value and CLint using the equations below.

CYP3A4 [2] = target: T1, CYP3A4 (Homo sapiens (Human), UniProt P08684); experiment: Time-dependent inhibition (TDI), IC50 shift +/-NADPH, human liver microsomes; format: in vitro ADME; details: IC50 −NADPH divided by IC50 +NADPH
T1 sequence (P08684 whole entry): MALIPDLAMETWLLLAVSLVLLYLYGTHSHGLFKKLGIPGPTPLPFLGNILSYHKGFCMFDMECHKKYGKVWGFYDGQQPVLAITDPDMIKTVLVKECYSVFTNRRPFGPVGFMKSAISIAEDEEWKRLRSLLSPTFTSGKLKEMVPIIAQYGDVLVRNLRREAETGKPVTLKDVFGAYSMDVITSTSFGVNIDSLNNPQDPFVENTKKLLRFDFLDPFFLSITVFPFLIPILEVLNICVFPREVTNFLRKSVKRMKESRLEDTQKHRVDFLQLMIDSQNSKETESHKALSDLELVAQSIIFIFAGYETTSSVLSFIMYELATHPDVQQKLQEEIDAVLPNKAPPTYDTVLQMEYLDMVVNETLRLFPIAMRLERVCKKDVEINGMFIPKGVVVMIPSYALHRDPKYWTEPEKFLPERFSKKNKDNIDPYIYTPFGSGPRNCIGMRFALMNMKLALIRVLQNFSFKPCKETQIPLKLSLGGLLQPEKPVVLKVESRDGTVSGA
Method: Test compound or positive control inhibitors (CYP2C9: Tienilic acid; CYP2D6: paroxetine; CYP3A4: mifepristone) were dissolved in DMSO and a semi-log dilution (up to 50.0 μM) was prepared to 2 incubation plates and normalized for a final DMSO content of 0.5%. Human liver microsomes were diluted at 1 mg/mL with 100 mM potassium phosphate buffer pH 7.4 (1 mM MgCl2) and added to both incubation plates. After pre-incubation at 37° C., the reaction was started with the addition of NADPH (+NADPH condition) or with water (−NADPH condition). Plates were incubated for 30 min and 8 μL were transferred to a second incubation plate containing 72 μL of 1 mM NADPH, 20 μM diclofenac (CYP2C9), 20 μM dextromethorphan (CYP2D6) and 10 μM midazolam (CYP3A4) in 100 mM potassium phosphate buffer pH 7.4 (1 mM MgCl2). Plates were incubated for 10 min and the reaction was stopped by the addition of cold acetonitrile containing internal standard (1:1 v/v). […] Metabolite area ratio (4-OH-diclofenac, dextrorphan and 1-OH-midazolam) versus internal standard area ratio was used as the quantitative signal. Data were analyzed using the plot log of concentration (x axis) versus the percentage of inhibition (y axis) and IC50. Hill Slope and R^2 were determined. The IC50 shift was then calculated by dividing the IC50-NADPH condition by the IC50 obtained in the +NADPH condition.

PXR nuclear receptor = PXR nuclear receptor (Homo sapiens (Human), UniProt O75469); experiment: PXR activation luciferase reporter assay; format: cell-based; details: 0.03-10 μM test compound; for PXR activation (% Max activity): percentage of the response of Rifampicin at 10 μM; for fold induction at 24 h: versus vehicle-treated cells, read-out: PXR activation (Max fold induction)
Sequence of PXR nuclear receptor (O75469 whole entry): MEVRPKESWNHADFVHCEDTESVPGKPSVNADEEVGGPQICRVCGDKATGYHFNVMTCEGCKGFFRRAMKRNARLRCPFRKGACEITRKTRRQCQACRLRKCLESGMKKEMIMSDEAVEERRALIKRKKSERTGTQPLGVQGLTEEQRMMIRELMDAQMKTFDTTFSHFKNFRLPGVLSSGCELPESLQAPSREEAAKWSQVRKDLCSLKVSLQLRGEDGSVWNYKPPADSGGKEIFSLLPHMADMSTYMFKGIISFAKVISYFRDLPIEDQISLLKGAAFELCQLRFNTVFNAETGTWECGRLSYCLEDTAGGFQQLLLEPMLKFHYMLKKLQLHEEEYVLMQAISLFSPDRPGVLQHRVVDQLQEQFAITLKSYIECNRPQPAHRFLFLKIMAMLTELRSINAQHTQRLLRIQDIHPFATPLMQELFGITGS
Method: An expression vector harboring a full-length PXR nuclear receptor plus the appropriate enhancers and promoters linked to the luciferase reporter gene were integrated into the tumor cells. Tumor cells transfected with the species-specific nuclear receptor and the corresponding response elements were seeded in a 96-well plate. Twenty-four hours after seeding, the cells were treated with six distinct concentrations (0.03-10 μM) of the test compound. The cells were then returned to the incubator for an additional 24 h. After this incubation period, the number of viable cells/well were determined using Promega's Cell Titer Fluor cytotoxicity assay. At the end of the assay, Promega's ONE-Glo was added to assess the receptor activation by monitoring reporter gene activity, and by comparing the results to vehicle-treated cells. Activation data were normalized to the number of viable cells/well. Results are expressed as a percentage of the response given by Rifampicin, the positive control, at a 10 μM dose.

CYP3A4 [3] = target: T1, CYP3A4; experiment: Reversible CYP inhibition in human liver microsomes (midazolam); format: in vitro ADME
Method: A seven-point semi-log dilution of each test compound (up to 30 μM) or positive control inhibitors for CYP2C9 (up to 1000 nM sulphenazole), CYP2D6 (up to 500 nM quinidine) and CYP3A4 (up to 250 nM ketoconazole) were dissolved in DMSO and added to the incubation plate using a Tecan 300 (normalized for 0.3% DMSO content). Final reaction conditions were: human liver microsomes (0.1 mg/mL), potassium phosphate buffer 100 mM pH 7.4, 1 mM magnesium chloride, 5 μM diclofenac, 5 μM dextromethorphan and 2.5 μM midazolam. After a pre-incubation at 37° C. The reaction was started with the addition of NADPH solution at the final concentration of 1 mM and carried out at 37° C. for 5 minutes. The reaction was stopped by the addition of 1 volume of cold acetonitrile with internal standard (labetalol) to the incubation plate. The incubation plate was centrifuged at 3000 rpm for 10 minutes to precipitate proteins, and the supernatant was analyzed by LC-MS/MS. Metabolite area ratio (4-OH-diclofenac, dextrorphan and 1-OH-midazolam) versus ISTD area ratio was used as the quantitative signal. Data were analyzed using the plot log of concentration (x-axis) versus the percentage of inhibition (y axis) and the IC50, Hill Slope and R^2 were determined.

[4] = target: PolQ ATPase enzyme (1-894) (Homo sapiens (Human), UniProt O75417); experiment: Polθ ATPase enzymatic assay (0.5 nM enzyme concentration), ADP-Glo; format: biochemical; details: 0.5 nM PolQ ATPase enzyme (1-894); average IC50
Sequence of PolQ ATPase enzyme (1-894) (O75417 1-894): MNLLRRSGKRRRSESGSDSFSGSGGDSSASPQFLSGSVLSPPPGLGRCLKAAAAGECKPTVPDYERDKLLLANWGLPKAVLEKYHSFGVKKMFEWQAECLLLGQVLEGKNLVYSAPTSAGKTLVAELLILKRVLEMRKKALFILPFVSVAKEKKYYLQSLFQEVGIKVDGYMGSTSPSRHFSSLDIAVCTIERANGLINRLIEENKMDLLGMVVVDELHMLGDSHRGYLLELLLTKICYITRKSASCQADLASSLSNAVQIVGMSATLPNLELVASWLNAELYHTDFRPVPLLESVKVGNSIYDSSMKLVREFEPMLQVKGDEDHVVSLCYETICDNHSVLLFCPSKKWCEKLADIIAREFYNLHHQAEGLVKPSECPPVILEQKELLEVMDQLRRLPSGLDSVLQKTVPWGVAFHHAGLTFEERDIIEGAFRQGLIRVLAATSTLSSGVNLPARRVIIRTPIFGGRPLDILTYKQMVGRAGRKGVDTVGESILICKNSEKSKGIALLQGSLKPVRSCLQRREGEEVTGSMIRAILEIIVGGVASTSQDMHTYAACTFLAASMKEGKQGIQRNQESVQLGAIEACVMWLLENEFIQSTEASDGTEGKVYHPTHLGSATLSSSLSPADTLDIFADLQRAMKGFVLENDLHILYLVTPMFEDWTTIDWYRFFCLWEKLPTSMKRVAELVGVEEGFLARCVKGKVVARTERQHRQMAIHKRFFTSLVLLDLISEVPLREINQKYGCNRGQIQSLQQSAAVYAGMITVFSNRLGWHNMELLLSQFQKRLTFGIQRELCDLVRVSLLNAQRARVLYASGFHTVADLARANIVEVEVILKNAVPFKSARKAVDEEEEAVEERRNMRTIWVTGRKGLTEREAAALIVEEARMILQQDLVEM
How it was run: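 Human PolQ ATPase domain (1-894), 0.5 nM, preincubated 15 min at rt with 10-point inhibitor series in 50 mM Tris pH 7.5, 10% glycerol, 5 mM DTT, 10 mM MgCl2, 0.1 mg/ml BSA.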

IC50 [4] [nM]	SMILES	other results
	COc1cnc(Cl)cc1-c1cnccc1C(=O)Nc1nnc(C#CC2CC2)s1	microsomal CLint at 1 μM [1]: < 7.7 µL/min/mg; Time-dependent CYP3A4 inhibition-shift after 30 min with NADPH (CYP3A4 [2]): 1x; PXR activation (% Max activity) (PXR nuclear receptor): 5.0%; fold induction at 24 h (PXR nuclear receptor): 1.8; pIC50 (CYP3A4 [3]): < 4.52
3.5	COc1ccc(F)cc1-c1cnccc1C(=O)Nc1nnc(C#Cc2ccc(C#N)cc2)s1 [Compound 473]	microsomal CLint at 1 μM [1]: 46.4 µL/min/mg; Time-dependent CYP3A4 inhibition-shift after 30 min with NADPH (CYP3A4 [2]): 1x; PXR activation (% Max activity) (PXR nuclear receptor): 2.0%; fold induction at 24 h (PXR nuclear receptor): 1.3; pIC50 (CYP3A4 [3]): 5.95
0.36	COc1cnc(Cl)cc1-c1cnccc1C(=O)Nc1nnc(C2C[C@H]2c2ccc(OC(F)F)cc2)s1 (some centres unmarked) [Compound 62]	
1.4	C#Cc1nnc(NC(=O)c2cnc(-n3ccc(C)cc3=O)cc2-c2cc(C(F)F)ncc2OC)s1 [Compound 518]	
0.36	COc1cnc(C(F)F)cc1-c1cc(N2C[C@H](C)OCC2=O)ncc1C(=O)Nc1nnc(C#CC2CC2)s1 [Compound 486]	
0.6	COc1cnc(C(F)F)cc1-c1cc(C#CCN2CCCC2)ncc1C(=O)Nc1nnc(C#CC2CC2)s1 [Compound 600]	
0.27	COc1cnc(C(F)F)cc1-c1cc(-n2ccc(OC3COC3)cc2=O)ncc1C(=O)Nc1nnc(C#CC2CC2)s1 [Compound 610]	
0.34	COc1cnc(C(F)F)cc1-c1cc(-n2ccc(C)cc2=O)ncc1C(=O)Nc1nnc([C@H]2C[C@@H]2C2CC2)s1 (racemic) [Compound 580]	
1	C#C[C@H]1CC1c1nnc(NC(=O)c2cnc(-n3ccc(OC)cc3=O)cc2-c2cc(C(F)F)ncc2OC)s1 (single isomer, unassigned) [Compound 629]	
3.2	COc1cnc(C(F)F)cc1-c1cc(C#CCC(C)(C)O)ncc1C(=O)Nc1nnc([C@H]2C[C@@H]2C)s1 (racemic) [Compound 620]	
4.3	COc1cnc(C(F)F)cc1-c1cc(-n2ccc(C)cc2=O)ncc1C(=O)Nc1nnc(C2CC(C)(C)C2)s1 [Compound 567]	
< 0.25	COC(=O)c1ccn(-c2cc(-c3cc(C(F)F)ncc3OC)c(C(=O)Nc3nnc(C#CC4CC4)s3)cn2)c(=O)c1 [Compound 496]	
> 100	COc1cnc(C(F)F)cc1-c1cc(C#CCN2C(=O)CCC2=O)ncc1C(=O)Nc1nnc(C#CC2CC2)s1 [Compound 561]	
0.95	COc1cnc(C(F)F)cc1-c1cc(-n2cccc(Cl)c2=O)ncc1C(=O)Nc1nnc([C@H]2C[C@@H]2C(F)(F)F)s1 [Compound 607]	
0.5	COc1cnc(C(F)F)cc1-c1cc(C#CC(C)(C)N2CCCCC2)ncc1C(=O)Nc1nnc(C#CC2CC2)s1 [Compound 553]	
0.93	COc1cnc(C(F)F)cc1-c1cc(C#CCC(C)(C)O)ncc1C(=O)Nc1nnc([C@H]2C[C@@H]2c2ccn(C)n2)s1 [Compound 631]	
0.73	COc1cnc(C(F)(F)F)nc1-c1cc(CC#N)ccc1C(=O)Nc1nnc(C#CC2CC2)s1 [Compound 482]	
1.7	COc1cnc(C(F)F)cc1-c1cc(-n2ccc(C)cc2=O)ncc1C(=O)Nc1nnc(C2CC2)s1 [Compound 532]	

IC50 [4] [nM]	SMILES	other results
1.2	COc1cnc(C(F)F)cc1-c1cc(-n2ccc(C)cc2=O)ncc1C(=O)Nc1nnc([C@H]2C[C@@H]2C(C)C)s1 (racemic) [Compound 586]	
1.1	C#C[C@H]1C[C@@H]1c1nnc(NC(=O)c2cnc(-n3ccc(Cl)cc3=O)cc2-c2cc(C(F)F)ncc2OC)s1 [Compound 624]	
0.8	COc1cnc(C(F)(F)F)cc1-c1cnccc1C(=O)Nc1nnc(C2C[C@H]2c2ccc(C#N)cc2)s1 (some centres unmarked) [Compound 90]	
1.8	COc1cnc(C(F)F)cc1-c1cc(C#CC2CCCN(C)C2)ncc1C(=O)Nc1nnc(C#CC2CC2)s1 (racemic) [Compound 556]	
0.48	COc1cnc(C(F)F)cc1-c1cc(-n2ccc(C)cc2=O)ncc1C(=O)Nc1nnc([C@H]2C[C@@H]2c2ccccn2)s1 (racemic) [Compound 592]	
1.1	C#C[C@H]1C[C@@H]1c1nnc(NC(=O)c2cnc(N3CCN(C)C4(CC4)C3=O)cc2-c2cc(C(F)F)ncc2OC)s1 [Compound 574]	
0.47	C#C[C@@]1(F)CC1c1nnc(NC(=O)c2cnc(-n3ccc(C)cc3=O)cc2-c2cc(C(F)F)ncc2OC)s1 (mixture of isomers) [Compound 639]	
5.8	Cc1nnc(Cn2cc(-c3cc(C(F)F)ccc3Cl)c(C(=O)Nc3nc(C)c(C#CC4CC4)s3)cc2=O)o1 [Compound 199]	
0.4	COc1cc(C)ncc1-c1cc(-c2cc(C(F)F)ncc2OC)c(C(=O)Nc2nnc(C#CC3CC3)s2)cn1 [Compound 489]	
4	COc1cnc(C(F)F)cc1-c1cc(C#CCN2CCOCC2)ncc1C(=O)Nc1nnc([C@H]2C[C@@H]2C)s1 (racemic) [Compound 606]	
0.39	COc1cnc(C(F)F)cc1-c1cc(N2CCN(C(=O)C(C)(C)C)C3(CC3)C2=O)ncc1C(=O)Nc1nnc(C#CC2CC2)s1 [Compound 516]	
< 0.25	C#C[C@H]1C[C@@H]1c1nnc(NC(=O)c2cnc(-n3ccc(CO)cc3=O)cc2-c2cc(C(F)F)ncc2OC)s1 [Compound 571]	
5.7	COc1ccc(-c2cc(-c3cc(C(F)F)ncc3OC)c(C(=O)Nc3nnc(C#CC4CC4)s3)cn2)c(OC)n1 [Compound 538]	
4.9	COc1cnc(C(F)F)cc1-c1cc(C#CC(C)(C)O)ncc1C(=O)Nc1nnc([C@H]2C[C@@H]2C)s1 (racemic) [Compound 619]	
8.5	COc1cnc(C(F)F)cc1-c1cc(C#CCC(C)(C)O)ncc1C(=O)Nc1nnc([C@@H]2C[C@H]2c2ccn(C)n2)s1 [Compound 630]	
1.7	C#C[C@@H]1CC1c1nnc(NC(=O)c2cnc(-n3ccc(C)cc3=O)cc2-c2cc(C(F)F)ncc2OC)s1 (single isomer, unassigned) [Compound 480]	
0.33	C#C[C@H]1CC1c1nnc(NC(=O)c2cnc(N3CCN(C(=O)OC)C4(CC4)C3=O)cc2-c2cc(C(F)F)ncc2OC)s1 (single isomer, unassigned) [Compound 636]	
